{"source": "patent US10829796B2", "about": "“Bacteria identification and antimicrobial susceptibility test” (priority 2015, dated 2020)", "system": "bacteria in clinical bovine mastitis milk samples", "test": "Combined bacteria identification and antimicrobial susceptibility test (colour of wells, MIC) on clinical bovine mastitis milk samples", "assay_type": "cell-based", "procedure": "Clinical bovine mastitis milk samples were collected by a vet clinic in South Island, New Zealand. Samples were stored in the freezer for several months and shipped frozen to the testing facility. In this Example, the term “clinical” means that dairy cows had clinical symptoms of an udder infection e.g. cow behaved unusual, milk clots, swollen udder among other typical symptoms. Testing was executed in microwell plate comprising of 24 wells (3×8 wells).\nIn addition, 20 ul of clinical mastitis sample was added to each well with a laboratory pipette.\n(§1) Abbreviations • 1. 80 ul GC+10 ul Tell: 80 ul Giolitti Cantoni base broth+10 ul Tellurite solution (1%); • 2. 80 ul TSB/Esc/Fer Cit: 80 ul Tryptic soy broth containing 0.25% Esculin and 0.125% Ammonium Ferric Citrate; • 3. 80 ul TSB/Esc/Fer Cit+10 ul Genta: 80 ul Tryptic soy broth containing 0.25% Esculin and 0.125% Ammonium Ferric Citrate+10 ul of Gentamycin solution 10 mg/ml; • 4. 80 ul McC/PR25: 80 ul MacConkey broth (single strength) containing 0.0125% phenol red; and • 5. 80 ul TSB/PR25: 80 ul Tryptic soy broth containing 0.0125% phenol red. Bacteria Identification\nColumns A to C and rows 1 and 2 were used for bacteria identification. A1: coagulase positive Staph; A2: Staphylococci; B1: Strep group D; B2: Strep group D; C1: general enrichment media (gram+ and gram-bacteria); C2: coliform bacteria.\nColumn A3 to A8: serial dilution of benzyl penicillin as potassium. Column B3 to B8: serial dilution of ceftiofur as hydrochloride. Column C3 to C8: serial dilution of cloxacillin as sodium. Antibiotic concentrations are listed as free form ranging between 4 ug/ml to 0.05 ug/ml.\nMinimum inhibitory substance concentration (MIC) is here defined as the concentration if a colour change occurs between two wells (one well remains red with drug concentration 1, the other one yellow with drug concentration 2, whereas drug concentration 1 is larger than drug concentration 2) then the MIC is the value of drug concentration 1.\nTable 21 indicates the microwell plate configuration #1; Drugs: Benzylpenicillin as potassium; Cloxacillin as sodium; Ceftiofur as hydrochloride; Drug concentration in each well (A3 to C8) is based on 80 μl composition+10 μl drug solution+20 μl clinical mastitis milk sample and equivalent to listed drug concentration in μg/ml; 20 ul of clinical bovine mastitis milk sample was added to each well (A1 to C8).\nIn addition, each well received one drop of clinical sample from a transfer pipette which was on average about 35 mg. This was determined through weighing the well plate prior and after the addition of clinical mastitis samples. This weight was then divided by 24.\nas §1, with “•” for “Abbreviations •”, “red.” for “red. Bacteria Identification”\nColumns A to C and rows 1 and 2 were used for bacteria identification. A1: coagulase positive Staph; A2: Staphylococci; B1: Strep Group D; B2: -; C1: general enrichment media (gram+ and gram-); C2: coliform bacteria.\nColumn A3 to A8: serial dilution of benzyl penicillin as potassium. Drug concentrations given as free form ranging between 4 ug/ml to 0.05 ug/ml. Column B3 to B8: serial dilution of ceftiofur as hydrochloride. Drug concentrations given as free form ranging between 4 ug/ml to 0.05 ug/ml. Column C3 to C8: serial dilution of cloxacillin as sodium. Drug concentrations given as free form ranging between 4 ug/ml to 0.05 ug/ml.", "data": [{"smiles": "CO/N=C(\\C(=O)N[C@@H]1C(=O)N2C(C(=O)O)=C(CSC(=O)c3ccco3)CS[C@H]12)c1csc(N)n1", "note": "[ceftiofur]", "values": [{"measurement": "Colour of media in each well", "setting": "ID 1, T = 22 h, 37° C., plate configuration #1, drug 0.05 μg/ml", "value": "yellow"}, {"measurement": "Colour of media in each well", "setting": "ID 1, T = 22 h, 37° C., plate configuration #1, drug 0.1 μg/ml", "value": "yellow"}, {"measurement": "Colour of media in each well", "setting": "ID 1, T = 22 h, 37° C., plate configuration #1, drug 0.5 μg/ml", "value": "red"}, {"measurement": "Colour of media in each well", "setting": "ID 1, T = 22 h, 37° C., plate configuration #1, drug 1 μg/ml", "value": "red"}, {"measurement": "Colour of media in each well", "setting": "ID 1, T = 22 h, 37° C., plate configuration #1, drug 2 μg/ml", "value": "red"}, {"measurement": "Colour of media in each well", "setting": "ID 1, T = 22 h, 37° C., plate configuration #1, drug 4 μg/ml", "value": "red"}, {"measurement": "Colour of media in each well", "setting": "ID 2, T = 48 h, 37° C., plate configuration #1, drug 0.05 μg/ml", "value": "yellow"}, {"measurement": "Colour of media in each well", "setting": "ID 2, T = 48 h, 37° C., plate configuration #1, drug 0.1 μg/ml", "value": "yellow"}, {"measurement": "Colour of media in each well", "setting": "ID 2, T = 48 h, 37° C., plate configuration #1, drug 0.5 μg/ml", "value": "yellow"}, {"measurement": "Colour of media in each well", "setting": "ID 2, T = 48 h, 37° C., plate configuration #1, drug 1 μg/ml", "value": "red"}, {"measurement": "Colour of media in each well", "setting": "ID 2, T = 48 h, 37° C., plate configuration #1, drug 2 μg/ml", "value": "red"}, {"measurement": "Colour of media in each well", "setting": "ID 2, T = 48 h, 37° C., plate configuration #1, drug 4 μg/ml", "value": "red"}, {"measurement": "Colour of media in each well", "setting": "ID 3, T = 22 h, 37° C., plate configuration #1, drug 0.05 μg/ml", "value": "red"}, {"measurement": "Colour of media in each well", "setting": "ID 3, T = 22 h, 37° C., plate configuration #1, drug 0.1 μg/ml", "value": "yellow"}, {"measurement": "Colour of media in each well", "setting": "ID 3, T = 22 h, 37° C., plate configuration #1, drug 0.5 μg/ml", "value": "yellow"}, {"measurement": "Colour of media in each well", "setting": "ID 3, T = 22 h, 37° C., plate configuration #1, drug 1 μg/ml", "value": "red"}, {"measurement": "Colour of media in each well", "setting": "ID 3, T = 22 h, 37° C., plate configuration #1, drug 2 μg/ml", "value": "red"}, {"measurement": "Colour of media in each well", "setting": "ID 3, T = 22 h, 37° C., plate configuration #1, drug 4 μg/ml", "value": "red"}, {"measurement": "Colour of media in each well", "setting": "ID 3, T = 23 h, 37° C., Table 34, drug 0.05 μg/ml", "value": "red"}, {"measurement": "Colour of media in each well", "setting": "ID 3, T = 23 h, 37° C., Table 34, drug 0.1 μg/ml", "value": "yellow"}, {"measurement": "Colour of media in each well", "setting": "ID 3, T = 23 h, 37° C., Table 34, drug 0.5 μg/ml", "value": "yellow"}, {"measurement": "Colour of media in each well", "setting": "ID 3, T = 23 h, 37° C., Table 34, drug 1 μg/ml", "value": "red"}, {"measurement": "Colour of media in each well", "setting": "ID 3, T = 23 h, 37° C., Table 34, drug 2 μg/ml", "value": "red"}, {"measurement": "Colour of media in each well", "setting": "ID 3, T = 23 h, 37° C., Table 34, drug 4 μg/ml", "value": "red"}, {"measurement": "Colour of media in each well", "setting": "ID 3, T~7 h, 37° C., Table 34, drug 0.05 μg/ml", "value": "red"}, {"measurement": "Colour of media in each well", "setting": "ID 3, T~7 h, 37° C., Table 34, drug 0.1 μg/ml", "value": "red"}, {"measurement": "Colour of media in each well", "setting": "ID 3, T~7 h, 37° C., Table 34, drug 0.5 μg/ml", "value": "red"}, {"measurement": "Colour of media in each well", "setting": "ID 3, T~7 h, 37° C., Table 34, drug 1 μg/ml", "value": "red"}, {"measurement": "Colour of media in each well", "setting": "ID 3, T~7 h, 37° C., Table 34, drug 2 μg/ml", "value": "red"}, {"measurement": "Colour of media in each well", "setting": "ID 3, T~7 h, 37° C., Table 34, drug 4 μg/ml", "value": "red"}, {"measurement": "Colour of media in each well", "setting": "ID 3, T~11 h, 37° C., Table 34, drug 0.05 μg/ml", "value": "red"}, {"measurement": "Colour of media in each well", "setting": "ID 3, T~11 h, 37° C., Table 34, drug 0.1 μg/ml", "value": "red"}, {"measurement": "Colour of media in each well", "setting": "ID 3, T~11 h, 37° C., Table 34, drug 0.5 μg/ml", "value": "red"}, {"measurement": "Colour of media in each well", "setting": "ID 3, T~11 h, 37° C., Table 34, drug 1 μg/ml", "value": "red"}, {"measurement": "Colour of media in each well", "setting": "ID 3, T~11 h, 37° C., Table 34, drug 2 μg/ml", "value": "red"}, {"measurement": "Colour of media in each well", "setting": "ID 3, T~11 h, 37° C., Table 34, drug 4 μg/ml", "value": "red"}, {"measurement": "Colour of media in each well", "setting": "ID 4, T = 22 h, 37° C., plate configuration #1, drug 0.05 μg/ml", "value": "yellow"}, {"measurement": "Colour of media in each well", "setting": "ID 4, T = 22 h, 37° C., plate configuration #1, drug 0.1 μg/ml", "value": "yellow"}, {"measurement": "Colour of media in each well", "setting": "ID 4, T = 22 h, 37° C., plate configuration #1, drug 0.5 μg/ml", "value": "orange"}, {"measurement": "Colour of media in each well", "setting": "ID 4, T = 22 h, 37° C., plate configuration #1, drug 1 μg/ml", "value": "red"}, {"measurement": "Colour of media in each well", "setting": "ID 4, T = 22 h, 37° C., plate configuration #1, drug 2 μg/ml", "value": "red"}, {"measurement": "Colour of media in each well", "setting": "ID 4, T = 22 h, 37° C., plate configuration #1, drug 4 μg/ml", "value": "red"}, {"measurement": "Colour of media in each well", "setting": "ID 5, T = 23 h, 37° C., plate configuration #2, drug 0.05 μg/ml", "value": "yellow"}, {"measurement": "Colour of media in each well", "setting": "ID 5, T = 23 h, 37° C., plate configuration #2, drug 0.1 μg/ml", "value": "yellow"}, {"measurement": "Colour of media in each well", "setting": "ID 5, T = 23 h, 37° C., plate configuration #2, drug 0.5 μg/ml", "value": "red"}, {"measurement": "Colour of media in each well", "setting": "ID 5, T = 23 h, 37° C., plate configuration #2, drug 1 μg/ml", "value": "red"}, {"measurement": "Colour of media in each well", "setting": "ID 5, T = 23 h, 37° C., plate configuration #2, drug 2 μg/ml", "value": "red"}, {"measurement": "Colour of media in each well", "setting": "ID 5, T = 23 h, 37° C., plate configuration #2, drug 4 μg/ml", "value": "red"}, {"measurement": "Colour of media in each well", "setting": "ID 5 to 8, T = 0 h (prior incubation, reference), plate configuration #2, drug 0.05 μg/ml", "value": "red"}, {"measurement": "Colour of media in each well", "setting": "ID 5 to 8, T = 0 h (prior incubation, reference), plate configuration #2, drug 0.1 μg/ml", "value": "red"}, {"measurement": "Colour of media in each well", "setting": "ID 5 to 8, T = 0 h (prior incubation, reference), plate configuration #2, drug 0.5 μg/ml", "value": "red"}, {"measurement": "Colour of media in each well", "setting": "ID 5 to 8, T = 0 h (prior incubation, reference), plate configuration #2, drug 1 μg/ml", "value": "red"}]}]}
